Experimental data taken from US20220323443A1, “COMBINATION THERAPY FOR CANCER TREATMENT” (TAKEDA PHARMACEUTICAL COMPANY LIMITED, priority 2019, published 2022).

Assays:
Assay in all cases: In vivo combination study, syngeneic mouse tumor isograft model
JC (Breast) = details: note to Table 9
Description: (§1) To investigate in vivo antitumor activity of Compound 1 in combination with other agents, tests using Cell Derived Xenograft (CDX), Patient Derived Xenograft (PDX) and Syngeneic mouse tumor isograft model were conducted. Cells or Patient Derived Tumors were inoculated by one method of the following two methods (Method A and B) as shown Table 7.
(§2) Method A; Cells were maintained in either immune deficient nude mice or immune competent mice by subcutaneous inoculation of tumor cells at various concentrations into respected mice. Method B: Patient Derived Tumor s were maintained in nude mice by subcutaneous inoculation of tumor pieces (approx. 2×2×2 mm) into nude mice. Mice with tumor size of approximately 50 mm^3 (e.g., 40-75 mm^3) for syngeneic mouse studies or 200 mm^3 (e.g., 110-270 mm^3) for xenograft studies were randomly assigned to dose groups on the day (Day 0) before start date of dosing.
(§3) Compound 1 (crystalline form I) was suspended in 0.5 w/v % methylcellulose and administered orally to mice. Antibodies which administered in the experiment were described in Table 8.
(§4) Tumor size was measured by caliper and tumor volume was estimated using the equation V=(LW^2)/2, where L and W are tumor length and width, respectively and reported in cubic millimeters.
(§5) These values were compared across treatment groups to assess whether the differences in the trends over time were statistically significant. To compare pairs of treatment groups, the following mixed-effects linear regression model was fit to the data using the maximum likelihood method:
(§6) For synergy analyses, the observed differences in the log tumor values were used to calculate AUC values for each animal. In instances when an animal in a treatment group was removed from the study, the last observed tumor value was carried forward through all subsequent time points. The AUC for the control, or vehicle, group was calculated using the predicted values from the pairwise models described above. We defined a measure of synergy as follows:
(§7) where Ak and Bk are the k^th animal in the individual treatment groups and ABk is the k^th animal in combination treatment group. AUCcd is the model-predicted AUC for the control group and was treated as a constant with no variability. The standard error of the synergy score was calculated as the square root of the sum of squared standard errors across groups A, B, and AB. The degrees of freedom were estimated using the Welch-Satterthwaite equation. A hypothesis test was performed to determine if the synergy score differed from 0. P values were calculated by dividing the synergy score by its standard error and tested against a t-distribution (two-tailed) with the above-calculated degrees of freedom.
(§8) The effect was classified into four different categories. It was considered synergistic if the synergy score was less than 0 and additive if the synergy score wasn't statistically different from 0. If the synergy score was greater than zero, but the mean AUC for the combination was lower than the lowest mean AUC among the two single agent treatments, then the combination was sub-additive. If the synergy score was greater than zero, and the mean AUC for the combination was greater than the mean AUC for at least one of the single agent treatments, then the combination was antagonistic.

[1] = test system: J558 mouse plasmacytoma tumors; details: note to Table 9
Description: as §1, §2, §3, §4, §5, §6, §7, §8

H22 (Hepatoma) = details: note to Table 9; by note order: Anti-mCTLA-4 study in H22 (55 mm^3)
Description: as §1, §2, §3, §4, §5, §6, §7, §8

Panc02 (Pancreatic) = details: note to Table 9
Description: as §1, §2, §3, §4, §5, §6, §7, §8

B16F10 (Melanoma) = details: note to Table 9

Cc1[nH]ncc1-c1cc2nc([C@@H]3CC4CCN3CC4)[nH]c(=O)c2s1 [Compound 1, 2-[(2S)-1-azabicyclo[2.2.2]oct-2-yl]-6-(3-methyl-1H-pyrazol-4-yl)thieno[3,2-d]pyrimidin-4(3H)-one]
CR per group (JC (Breast); by note order: Anti-mCTLA-4 study in JC (60 mm^3)): 0 CR in CTLA-4 group and 0 CR in Compound 1 group, and 0 CR in Compound 1/CTLA-4 combo group
CR per group (JC (Breast); by note order: Anti-mPD-1 study in JC (60 mm^3)): 0 CR in PD-1 group and 0 CR in Compound 1 group, and 0 CR in Compound 1/PD-1 combo group
CR per group ([1]; by note order: Anti-mCTLA-4 study in J558 (30 mm^3)): 2
CR per group ([1]; by note order: Anti-mPD-1 study in J558 (30 mm^3)): 2
CR per group ([1]; by note order: Anti-mPD-L1 study in J558 (30 mm^3)): 2
CR per group (H22 (Hepatoma)): 0
CR per group (Panc02 (Pancreatic); by note order: Anti-mPD-1 study in Panc02 (75 mm^3)): 0 CR in PD-1 group and 0 CR in Compound 1 group, and 0 CR in Compound 1/PD-1 combo group
CR per group (Panc02 (Pancreatic); by note order: Gemcitabine study in Panc02 (75 mm^3)): 0 CR in Gemcitabine group and 0 CR in Compound 1 group, and 0 CR in Compound 1/Gemcitabine combo group
CR per group (B16F10 (Melanoma); by note order: Anti-mPD-1 study in B16F10 (67 mm^3)): 0 CR in PD-1 group and 0 CR in Compound 1 group, and 0 CR in Compound 1/PD-1 combo group
CR per group (B16F10 (Melanoma); by note order: NKTR-214 + anti-mPD-1 study in B16F10 (67 mm^3)): 0 CR in NKTR-214 + PD-1 group, and 0 CR in Compound 1 group, and 0 CR in Compound 1/NKTR-214/PD-1 triple combo group
CR per group (B16F10 (Melanoma); by note order: NKTR-214 study in B16F10 (67 mm^3)): no CR
